Patent US11827627B2, “N-(hydroxyalkyl (hetero)aryl) tetrahydrofuran carboxamides as modulators of sodium channels” (VERTEX PHARMACEUTICALS INCORPORATED, priority 2021, dated 2023)

Molecular target: human NaV 1.8 (Homo sapiens, UniProt Q9Y5Y9)
Assay: E-VIPR assay detecting and measuring NaV inhibition properties
Type: cell-based
Conditions: HEK cells expressing a truncated form of human NaV 1.8; electrical stimulation, membrane potential FRET dyes
Text: E-VIPR Assay Detecting and Measuring NaV Inhibition Properties
Sodium ion channels are voltage-dependent proteins that can be activated by inducing membrane voltage changes by applying electric fields. The electrical stimulation instrument and methods of use, referred to as E-VIPR, are described in International Publication No. WO 2002/008748 A3 and C.-J. Huang et al. Characterization of voltage-gated sodium channel blockers by electrical stimulation and fluorescence detection of membrane potential, 24 Nature Biotech. 439-46 (2006), both of which are incorporated by reference in their entirety. The instrument comprises a microtiter plate handler, an optical system for exciting the coumarin dye while simultaneously recording the coumarin and oxonol emissions, a waveform generator, a current- or voltage-controlled amplifier, and parallel electrode pairs that are inserted into assay plate wells. Under integrated computer control, this instrument passes user-programmed electrical stimulus protocols to cells within the wells of the microtiter plate.
16-20 hours prior to running the assay on E-VIPR, HEK cells expressing a truncated form of human NaV 1.8 with full channel activity were seeded into microtiter 384-well plates, pre-coated with matrigel, at a density of 25,000 cells per well. 2.5-5% KIR2.1 Bacmam virus was added to the final cell suspension before seeding into cell plates. HEK cells were grown in Dulbecco's Modified Eagle's Medium (DMEM) supplemented with 10% FBS (Fetal Bovine Serum, qualified; Sigma #F4135), 1% NEAA (Non-Essential Amino Acids, Gibco #11140), 1% HEPES (Gibco #15630), 1% Pen-Strep (Penicillin-Streptomycin; Gibco #15140) and 5 μg/ml Blasticidin (Gibco #R210-01). Cells were expanded in vented cap cell culture flasks, with 90-95% humidity and 5% CO2.
Reagents and Stock Solutions:
100 mg/mL Pluronic F-127 (Sigma #P2443), in dry DMSO
Compound Plates: Corning 384-well Polypropylene Round Bottom #3656
Cell Plates: 384-well tissue culture treated plates (Greiner #781091-2B)
2.5-5% KIR 2.1 Bacmam virus (produced in-house), prepared as described in Section 3.3 of J. A. Fornwald et al., Gene Expression in Mammalian Cells Using BacMam, a Modified Baculovirus System, 1350 Methods in Molecular Biology 95-116 (2016), the entire contents of which are incorporated by reference. The concentration used can be dependent on viral titer of each batch.
5 mM DiSBAC6(3), a voltage sensitive oxonol acceptor (CAS number 169211-44-3; 5-[3-(1,3-dihexylhexahydro-4,6-dioxo-2-thioxo-5-pyrimidinyl)-2-propen-1-ylidene]-1,3-dihexyldihydro-2-thioxo-4,6(1H,5H)-pyrimidinedione), in dry DMSO. The preparation of DiSBAC6(3) is analogous to that of DiSBAC4(3) as described in Voltage Sensing by Fluorescence Resonance Energy Transfer in Single Cells, Gonzalez, J. E. and Tsien, R. Y. (1995) Biophys. J. 69, 1272-1280.
5 mM CC2-DMPE, a commercially available membrane-bound coumarin phospholipid FRET donor (ThermoFisher Scientific catalog number K1017, CAS number 393782-57-5; tetradecanoic acid, 1,1′-[(1R)-1-[8-(6-chloro-7-hydroxy-2-oxo-2H-1-benzopyran-3-yl)-3-hydroxy-3-oxido-8-oxo-2,4-dioxa-7-aza-3-phosphaoct-1-yl]-1,2-ethanediyl]ester) was prepared in dry DMSO. See also, Improved indicators of cell membrane potential that use fluorescence resonance energy transfer, Gonzalez, J. E. and Tsien, R. Y. (1997) Chem. Biol. 4, 269-277.
Voltage Assay Background Suppression Compound (VABSC-1) is prepared in H2O (89-363 mM, range used to maintain solubility)
Human Serum (HS, Millipore #S1P1-01KL, or Sigma SLBR5469V and SLBR5470V as a 50%/50% mixture, for 25% assay final concentration)
Bath 1 Buffer: • Sodium Chloride 160 mM (9.35 g/L), Potassium Chloride, 4.5 mM (0.335 g/L), Glucose 10 mM (1.8 g/L), Magnesium Chloride (Anhydrous) 1 mM (0.095 g/L), Calcium Chloride 2 mM (0.222 g/L), HEPES 10 mM (2.38 g/L) in water. […]

Chain of human NaV 1.8 (Q9Y5Y9 126-1722 limits assumed): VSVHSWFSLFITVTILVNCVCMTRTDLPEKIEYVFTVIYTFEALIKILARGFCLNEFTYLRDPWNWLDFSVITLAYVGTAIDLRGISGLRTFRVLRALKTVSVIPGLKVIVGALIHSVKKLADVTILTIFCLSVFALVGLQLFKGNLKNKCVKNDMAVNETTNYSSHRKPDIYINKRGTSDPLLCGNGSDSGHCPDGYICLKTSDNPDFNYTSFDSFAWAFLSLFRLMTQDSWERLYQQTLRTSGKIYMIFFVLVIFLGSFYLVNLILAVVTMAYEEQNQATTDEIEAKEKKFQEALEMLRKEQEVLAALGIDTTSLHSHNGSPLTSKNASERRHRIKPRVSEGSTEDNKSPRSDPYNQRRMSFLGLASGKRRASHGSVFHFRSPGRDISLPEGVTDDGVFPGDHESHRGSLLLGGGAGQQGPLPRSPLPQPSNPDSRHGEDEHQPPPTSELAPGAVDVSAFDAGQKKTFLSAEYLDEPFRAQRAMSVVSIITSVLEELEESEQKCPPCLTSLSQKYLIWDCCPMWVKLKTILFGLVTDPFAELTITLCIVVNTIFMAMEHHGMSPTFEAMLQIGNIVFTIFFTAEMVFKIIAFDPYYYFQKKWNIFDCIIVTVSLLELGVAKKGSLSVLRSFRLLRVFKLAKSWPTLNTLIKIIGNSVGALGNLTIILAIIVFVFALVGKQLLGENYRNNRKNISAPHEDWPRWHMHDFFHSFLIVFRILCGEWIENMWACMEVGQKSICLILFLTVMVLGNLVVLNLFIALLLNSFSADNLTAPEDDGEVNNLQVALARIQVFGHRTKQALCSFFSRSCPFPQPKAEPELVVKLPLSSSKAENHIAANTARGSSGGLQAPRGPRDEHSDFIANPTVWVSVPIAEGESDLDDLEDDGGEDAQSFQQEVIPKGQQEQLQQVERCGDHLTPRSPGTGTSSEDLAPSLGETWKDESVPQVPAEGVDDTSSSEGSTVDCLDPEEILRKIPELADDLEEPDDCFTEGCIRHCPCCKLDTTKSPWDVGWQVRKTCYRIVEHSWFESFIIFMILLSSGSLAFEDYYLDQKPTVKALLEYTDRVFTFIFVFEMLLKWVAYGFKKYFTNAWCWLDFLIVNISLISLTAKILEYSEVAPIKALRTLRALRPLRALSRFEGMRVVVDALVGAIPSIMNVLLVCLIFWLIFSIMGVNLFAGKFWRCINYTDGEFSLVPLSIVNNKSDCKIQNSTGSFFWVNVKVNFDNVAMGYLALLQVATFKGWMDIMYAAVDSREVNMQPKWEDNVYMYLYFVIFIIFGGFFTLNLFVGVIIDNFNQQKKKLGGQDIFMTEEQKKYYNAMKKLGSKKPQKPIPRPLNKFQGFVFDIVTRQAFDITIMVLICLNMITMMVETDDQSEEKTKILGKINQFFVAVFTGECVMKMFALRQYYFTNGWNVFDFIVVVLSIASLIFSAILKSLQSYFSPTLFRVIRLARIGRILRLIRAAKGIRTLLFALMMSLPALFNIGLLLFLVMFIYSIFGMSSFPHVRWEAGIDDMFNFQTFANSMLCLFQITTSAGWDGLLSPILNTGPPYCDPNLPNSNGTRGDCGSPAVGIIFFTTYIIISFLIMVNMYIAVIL

Row | IC50 [nM] | SMILES
1 | 100 to 1000 | COc1c([C@@H]2C[C@](C)(C(F)(F)F)O[C@H]2C(=O)Nc2ccc([C@@H](O)CO)nc2)ccc(F)c1F (relative stereo) [Compound 24, rel-(2R,3S,5R)-3-(3,4-difluoro-2-methoxyphenyl)-N-(6-((R*)-1,2-dihydroxyethyl)pyridin-3-yl)-5-methyl-5-(trifluoromethyl)tetrahydrofuran-2-carboxamide]
2 | ≥ 1000 | COc1c([C@H]2C[C@@](C)(C(F)(F)F)O[C@@H]2C(=O)Nc2ccc([C@@H](O)CO)nc2)ccc(F)c1F (relative stereo) [Compound 25, rel-(2S,3R,5S)-3-(3,4-difluoro-2-methoxyphenyl)-N-(6-((R*)-1,2-dihydroxyethyl)pyridin-3-yl)-5-methyl-5-(trifluoromethyl)tetrahydrofuran-2-carboxamide]
3 | 10 to 100 | COc1c([C@H]2[C@H](C(=O)Nc3ccc(C(C)O)nc3)O[C@@](C)(C(F)(F)F)[C@H]2C)ccc(F)c1C(F)F (relative stereo) [Compound 56, rel-(2R,3S,4S,5R)-3-(3-(difluoromethyl)-4-fluoro-2-methoxyphenyl)-N-(6-(1-hydroxyethyl)pyridin-3-yl)-4,5-dimethyl-5-(trifluoromethyl)tetrahydrofuran-2-carboxamide]
4 | 10 to 100 | COc1c([C@H]2[C@H](C(=O)Nc3ccc([C@H](O)CO)[n+]([O-])c3)O[C@@](C)(C(F)(F)F)[C@H]2C)ccc(F)c1C (relative stereo) [Compound 59, rel-2-((S*)-1,2-dihydroxyethyl)-5-((2R,3S,4S,5R)-3-(4-fluoro-2-methoxy-3-methylphenyl)-4,5-dimethyl-5-(trifluoromethyl)tetrahydrofuran-2-carboxamido)pyridine 1-oxide]
5 | < 10 | COc1c([C@H]2[C@H](C(=O)Nc3ccc([C@@H](O)CO)nc3)O[C@@](C)(C(F)(F)F)[C@H]2C)ccc(F)c1F (single isomer, unassigned) [Compound 1]
6 | < 10 | COc1c([C@H]2[C@H](C(=O)Nc3ccc([C@H](O)CO)nc3)O[C@@](C)(C(F)(F)F)[C@H]2C)ccc(F)c1F (single isomer, unassigned) [Compound 2]
7 | < 10 | COc1c([C@H]2[C@H](C(=O)Nc3ccc([C@@H](O)[C@@H](C)O)nc3)O[C@@](C)(C(F)(F)F)[C@H]2C)ccc(F)c1F (single isomer, unassigned) [Compound 3, rel-(2R*,3S*,4S*,5R*)-3-(3,4-difluoro-2-methoxyphenyl)-N-(6-((1R,2R)-1,2-dihydroxypropyl)pyridin-3-yl)-4,5-dimethyl-5-(trifluoromethyl)tetrahydrofuran-2-carboxamide]
8 | < 10 | COc1c([C@H]2[C@H](C(=O)Nc3ccc([C@H](O)[C@H](C)O)nc3)O[C@@](C)(C(F)(F)F)[C@H]2C)ccc(F)c1F (single isomer, unassigned) [Compound 4, rel-(2R*,3S*,4S*,5R*)-3-(3,4-difluoro-2-methoxyphenyl)-N-(6-((1S,2S)-1,2-dihydroxypropyl)pyridin-3-yl)-4,5-dimethyl-5-(trifluoromethyl)tetrahydrofuran-2-carboxamide]
9 | < 10 | COc1c(C2C(C(=O)Nc3cnc(C(O)CO)nc3)OC(C)(C(F)(F)F)C2C)ccc(F)c1F (single isomer, unassigned) [Compound 11]
10 | 10 to 100 | COc1c(C2C(C(=O)Nc3cnc(C(O)CO)nc3)OC(C)(C(F)(F)F)C2C)ccc(F)c1F (single isomer, unassigned) [Compound 12]
11 | < 10 | COc1c([C@H]2[C@H](C(=O)Nc3ccc(C(O)CF)nc3)O[C@@](C)(C(F)(F)F)[C@H]2C)ccc(F)c1F (single isomer, unassigned) [Compound 16, rel-(2R*,3S*,4S*,5R*)-3-(3,4-difluoro-2-methoxyphenyl)-N-(6-(2-fluoro-1-hydroxyethyl)pyridin-3-yl)-4,5-dimethyl-5-(trifluoromethyl)tetrahydrofuran-2-carboxamide]
12 | 10 to 100 | COc1c(C2C(C(=O)Nc3ccc(C(O)CF)nc3)OC(C)(C(F)(F)F)C2C)ccc(F)c1F (single isomer, unassigned) [Compound 17, rel-(2R*,3S*,4S*,5R*)-3-(3,4-difluoro-2-methoxyphenyl)-N-(6-(2-fluoro-l-hydroxyethyl)pyridin-3-yl)-4,5-dimethyl-5-(trifluoromethyl)tetrahydrofuran-2-carboxamide]
13 | 10 to 100 | COCC(O)c1ccc(NC(=O)[C@@H]2O[C@@](C)(C(F)(F)F)[C@@H](C)[C@H]2c2ccc(F)c(F)c2OC)cn1 (single isomer, unassigned) [Compound 20, rel-(2R*,3S*,4S*,5R*)-3-(3,4-difluoro-2-methoxyphenyl)-N-(6-(1-hydroxy-2-methoxyethyl)pyridin-3-yl)-4,5-dimethyl-5-(trifluoromethyl)tetrahydrofuran-2-carboxamide]
14 | 10 to 100 | COCCC(O)c1ccc(NC(=O)[C@@H]2O[C@@](C)(C(F)(F)F)[C@@H](C)[C@H]2c2ccc(F)c(F)c2OC)cn1 (single isomer, unassigned) [Compound 22, rel-(2R*,3S*,4S*,5R*)-3-(3,4-difluoro-2-methoxyphenyl)-N-(6-(1-hydroxy-3-methoxypropyl)pyridin-3-yl)-4,5-dimethyl-5-(trifluoromethyl)tetrahydrofuran-2-carboxamide]
15 | 100 to 1000 | COCCC(O)c1ccc(NC(=O)[C@@H]2O[C@@](C)(C(F)(F)F)[C@@H](C)[C@H]2c2ccc(F)c(F)c2OC)cn1 (single isomer, unassigned) [Compound 23, rel-(2R*,3S*,4S*,5R*)-3-(3,4-difluoro-2-methoxyphenyl)-N-(6-(1-hydroxy-3-methoxypropyl)pyridin-3-yl)-4,5-dimethyl-5-(trifluoromethyl)tetrahydrofuran-2-carboxamide]
16 | 100 to 1000 | COc1c([C@@H]2C[C@](C)(C(F)(F)F)O[C@H]2C(=O)Nc2ccc([C@H](O)CO)nc2)ccc(F)c1F (single isomer, unassigned) [Compound 26, rel-(2R,3S,5R)-3-(3,4-difluoro-2-methoxyphenyl)-N-(6-((S*)-1,2-dihydroxyethyl)pyridin-3-yl)-5-methyl-5-(trifluoromethyl)tetrahydrofuran-2-carboxamide]
17 | ≥ 1000 | COc1c([C@H]2C[C@@](C)(C(F)(F)F)O[C@@H]2C(=O)Nc2ccc([C@H](O)CO)nc2)ccc(F)c1F (single isomer, unassigned) [Compound 27, rel-(2S,3R,5S)-3-(3,4-difluoro-2-methoxyphenyl)-N-(6-((S*)-1,2-dihydroxyethyl)pyridin-3-yl)-5-methyl-5-(trifluoromethyl)tetrahydrofuran-2-carboxamide]
18 | ≥ 1000 | COc1c([C@H]2C[C@@](C)(C(F)(F)F)O[C@@H]2C(=O)Nc2cnc(C(O)CO)nc2)ccc(F)c1F (single isomer, unassigned) [Compound 28]
19 | 100 to 1000 | COc1c([C@@H]2C[C@](C)(C(F)(F)F)O[C@H]2C(=O)Nc2cnc(C(O)CO)nc2)ccc(F)c1F (single isomer, unassigned) [Compound 29]
20 | ≥ 1000 | CCOc1c([C@H]2C[C@@](C)(C(F)(F)F)O[C@@H]2C(=O)Nc2ccc([C@H](O)CO)nc2)ccc(F)c1F (single isomer, unassigned) [Compound 32, rel-(2S,3R,5S)-N-(6-((S*)-1,2-dihydroxyethyl)pyridin-3-yl)-3-(2-ethoxy-3,4-difluorophenyl)-5-methyl-5-(trifluoromethyl)tetrahydrofuran-2-carboxamide]
